In article doi:10.1101/2025.08.18.25333496, “A Phase 0 Window of Opportunity Trial of LB100, a Protein Phosphatase 2A Inhibitor, in Patients with Recurrent Gliomas” (medRxiv, 2025):
Where two headings read alike, the source gives them in different places.

Columns and labels:
[1] = clinical; design: species or system human; conditions: in vivo
Procedure: Glioma tissue sampling to detect and quantify LB100 was performed post-dose in each patient, with resection time points from the end of the LB100 infusion recorded. After ensuring adequate diagnostic tissue, remaining tissue was used for PK analysis. Briefly, removed tissues were rinsed with saline immediately (to remove LB100-containing blood and avoid falsely elevated LB100 measurements), then divided, flash-frozen, and stored at −80°C for future batch analysis.
This analysis was performed blinded to tumor type.

[2] = human, in vivo
Procedure: (§1) In this current trial, a single dose of LB100 was infused over two hours (+/− 15 minutes) starting two to four hours before surgery.
(§2) Blood and plasma samples for PK measurements were also performed on all participants. Samples were collected at the following time points: 1) Pre-dose; 2) End of infusion (2 hours post-start); 3) 30 minutes post LB100 infusion completion; 4) 1 hour post LB-100 infusion completion; 5) 2 hours post LB100 infusion completion; 6) 4 hours post LB100 infusion completion; 7) 8 hours post LB100 infusion completion.
(§3) LB100 concentration in clinical PK samples (plasma and tumor tissue), was quantified using a validated and robust LC-MS/MS assay developed at the NCI that used LB-105 as an internal standard. This analysis was performed blinded to tumor type. Plasma samples were pre-treated with 50 mM NaOH and tissue samples were homogenized in acetonitrile at a concentration of 100 mg/mL Briefly, samples were mixed with aqueous 10 mM triethylamine (TEA) containing internal standard followed by protein precipitation with 0.5% TEA in acetonitrile. Samples were processed alongside calibration and quality control (QC) standards, ranging from 2–1000 ng/mL (~7.5–3700 nM) and 3–10,000 pg/mg (~1.2–3700 nM) for plasma and brain tissue, respectively. […] The analyte and internal standard were chromatographically separated using a Waters Acquity UPLC BEH C18 (1.7-μm, 2.1×50mm) on a Waters Acuity UPLC system (Waters Corp., Milford, MA). A gradient mobile phase consisting of 5 mM ammonium bicarbonate (aq) and acetronitrile was flowed at a rate of 0.5 to 1 mL/min; the injection volume was 5 uL. After chromatographic separation, the compounds were eluted and detected using a AbSciex QTrap 5500 tandem mass spectrometer in positive ion electrospray mode; MRM transitions were m/z 269.1 → 101.0 and 283.2 → 115.1 for LB-100 and LB-105, respectively.
(§4) Plasma PK was analyzed via a non-compartmental approach using Phoenix WinNonlin v8.3 (Certara Corp, Cary, NC) that was validated per FDA 21CFR Part 11 Regulations. The maximum plasma concentration (Cmax) and the time of Cmax (Tmax) were reported as observed values. A rate constant of the terminal phase, λz, was calculated from the concentration-time curve using uniformly weighted least-squares as the estimation procedure and acceptance criteria of i) r^2 > 0, ii) includes >3-time points. […] Estimated pharmacokinetic parameters included half-life (t1/2; inverse of λz), volume of distribution (Vd; dose divided by product of λz and AUCINF), and clearance (CL; dose divided by AUCINF). Drug concentrations in brain tissue samples were reported and % brain penetrance was approximated via the ratio of brain tissue drug concentration to plasma drug concentrations from matched timepoints post-tissue collection.

[3] = in vivo
Procedure: After LB100 infusion and craniotomy all patients were evaluated in person 1–3 days following surgery and followed for at least 30 days after infusion of LB100 for toxicities and adverse events (AEs). All adverse events, including clinically significant abnormal findings on laboratory evaluations, regardless of severity, were followed until return to baseline or stabilization of event. Adverse events were documented from the first study intervention (study day 1) through the final safety visit (study day 30). Beyond 30 days only adverse events which were serious and related to the study intervention were recorded. The descriptions and grading scales found in the revised NCI Common Terminology Criteria for Adverse Events (CTCAE) version 5.0 were utilized for AE reporting.
During the first post-operative week after infusion with LB100, an EKG, renal function tests and liver function tests were performed. Two to three weeks following discharge from the hospital, all patients were given a physical exam and additional blood testing. At approximately 30 days post-craniotomy patients were questioned to determine whether any new AEs had occurred, and any ongoing AEs were followed up on. Prior to removal from the study, at approximately 30 days following drug infusion, all subjects completed a final safety evaluation.

[4] = molecular target: protein phosphatase 2A (PP2A); conditions: cited from earlier work
[5] = design: method as in Lixte Biotechnology, Investigators Brochure, unpublished; conditions: ref Lixte Biotechnology, Investigators Brochure, unpublished, cited from earlier work
[6] = test system: PP2A; design: method as in Lixte Biotechnology, Investigators Brochure, unpublished; conditions: mice, brain region with intact BBB; ref Lixte Biotechnology, Investigators Brochure, unpublished; cited from earlier work
[7] = design: method as in PMID 28039265; conditions: dose level above the established safe dose; cited from earlier work
[8] = clinical; conditions: human, in vivo
Procedure: as §1, §2, §3, §4

[9] = one-time administration equivalent to human maximum tolerated dose

With `CN1CCN(C(=O)C2C(C(=O)O)[C@H]3CC[C@@H]2O3)CC1` (some centres unmarked) [LB100] the “% Brain Pen (ratio of brain:plasma concentrations)” value ([1]; human) was 0.31% (159%), the Kp ([1]; human) was 0.0031 and the concentration at 5.68 h ([1]; human) was 0.51 ng/g. For the same molecule, the “concentration of LB100 in tumor tissue, range” value ([1]; human) was 0 to 0.67 nM, the “percent of drug penetration into the brain, range” value ([1]; human) was 0% to 1.04% and the “difference in drug levels between contrast and non-contrast regions of tumor” value [1] was “no significant difference in drug levels”. The T1/2 [2] was 1.27 (13%) hr, the “plasma concentration of LB100 at the time of biopsy, range” value [2] was 30.81 to 132.26 nM and the “AEs related to LB100” value ([3]; human, 30 days) was “No AEs were thought to be related to LB100”. The “total number of AEs” value ([3]; human, 30 days) was 30, the “AEs rated as serious (grade 3 or 4)” value [3] was “Four” and the IC50 ([4]; in glial cell lines, read-out: IC50 of PP2A) was 200 to 400 nM. For the same molecule, the IC50 ([4]; previously established, read-out: minimum IC50 targeting protein phosphatase 2A) was 200 nM, the “mean Cmax in plasma” value ([5]; animal studies) was 1110~3664 ng/ml and the “mean Cmax in the brain” value ([5]; animal studies) was 17.4~43.5 ng/kg. The “animals with LB100 detected in implanted tumor” value [5, 9] was 1 of 3, the “animals with LB100 detected in normal brain and liver” value [5, 9] was 2 of 3 and the “PP2A enzymatic activity in the lateral habenula” value [6] was “significantly decrease PP2A enzymatic activity”. For the same molecule, the “patients with grade 3 increases in creatinine clearance” value [7] was 2 of 4, the Vd [8] was 21.7 L and the clearance [8] was 195 mL/min. For the same molecule, the AUC(0-inf) ([8]; AUCinf) was 414 ng·h/mL, the Cmax [8] was 146 ng/mL and the Cmax ([8]; range) was 95 to 179 ng/mL. The half-life ([8]; T1/2) was 1.2 h, the Tmax ([8]; TMAX) was 2.1 h and the Tmax ([8]; Tmax, range) was 2.07 to 2.63 h. It also gave an AUC(0-inf) ([8]; plasma drug exposure (AUCINF), range) of 325 to 468 ng·h/mL and a half-life ([8]; plasma half-life (T1/2), range) of 1.09 to 1.46 h.
